Results published in publication PMC3725620 (Breast cancer research and treatment, 2011).
pIC50: −log10 of the molar value.

Key:
[1] = molecular target: prostaglandin E receptor EP4 (Homo sapiens, UniProt P35408); assay: inhibition of 3H-PGE2 radioligand binding; assay type: cell-based
[2] = molecular target: prostaglandin E receptor EP2 (Homo sapiens, UniProt P43116); assay: inhibition of 3H-PGE2 radioligand binding; assay type: cell-based
Chain of prostaglandin E receptor EP2 (P43116 whole entry): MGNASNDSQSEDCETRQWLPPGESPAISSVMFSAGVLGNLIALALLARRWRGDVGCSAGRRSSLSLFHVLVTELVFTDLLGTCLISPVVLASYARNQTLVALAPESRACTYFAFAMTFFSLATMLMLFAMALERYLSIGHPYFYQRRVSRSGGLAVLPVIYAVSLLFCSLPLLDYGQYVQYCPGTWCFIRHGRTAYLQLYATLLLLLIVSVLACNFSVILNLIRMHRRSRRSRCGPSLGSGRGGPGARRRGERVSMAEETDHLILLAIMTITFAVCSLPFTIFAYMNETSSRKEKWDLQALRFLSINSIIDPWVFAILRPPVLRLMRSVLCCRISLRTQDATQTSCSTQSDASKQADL

Chain of prostaglandin E receptor EP4 (P35408 whole entry): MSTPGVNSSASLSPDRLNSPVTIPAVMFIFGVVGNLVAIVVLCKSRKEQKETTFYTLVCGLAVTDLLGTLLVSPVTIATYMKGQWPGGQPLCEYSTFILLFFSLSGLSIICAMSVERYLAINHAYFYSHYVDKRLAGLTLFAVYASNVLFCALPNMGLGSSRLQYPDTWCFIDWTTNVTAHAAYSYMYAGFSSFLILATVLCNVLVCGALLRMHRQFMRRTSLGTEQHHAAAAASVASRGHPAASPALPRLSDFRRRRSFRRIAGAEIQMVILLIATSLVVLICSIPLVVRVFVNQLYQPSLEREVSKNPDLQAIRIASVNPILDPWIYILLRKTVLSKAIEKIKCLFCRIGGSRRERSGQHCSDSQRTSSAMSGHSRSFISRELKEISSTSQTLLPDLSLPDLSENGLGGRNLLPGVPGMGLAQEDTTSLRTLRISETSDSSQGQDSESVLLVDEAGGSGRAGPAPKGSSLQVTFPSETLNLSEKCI

Question: With `CO[C@@H]1[C@@H](O)[C@H](O[C@@H]2[C@@H](O)[C@H](O[C@H]3[C@H](O)[C@@H](O[C@@H]4OC[C@@H](O)[C@H](O)[C@H]4O)[C@H](O[C@H]4[C@H](OC5CC[C@]6(C)[C@H]7CCC89C(=O)O[C@@](C)(CCCC(C)C)C8[C@@H](OC(C)=O)C[C@@]9(C)C7=CC[C@H]6C5(C)C)OC[C@@H](OS(=O)(=O)O)[C@@H]4O)O[C@@H]3C)OC[C@H]2O)O[C@H](CO)[C@H]1O` (some centres unmarked) [FA, Frondoside A] as the compound, how does the pIC50 [1] read?
Answer: ~5.43

Question: What about the pIC50 [2] of the same compound?
Answer: 4.78
